The record followed here is patent US10675360B2 (MADRIGAL PHARMACEUTICALS, INC., priority 2014, dated 2020).

One data set deals with H 3211 NSLC cells. Put plainly: IC50 of continuous and pulsed exposure to SDC-TRAPs. The class given is cell-based.
Data set [1] can be described thus: Stability in mouse plasma. The format is in vitro ADME. To be noted: 1 h.
Experimental: SDC-TRAP-0022 and SDC-TRAP-0028 were incubated in human and mouse plasma for 2 h at 37° C. and assayed for integrity at 0.25, 0.5, 1 and 2 h. The values reported below are the remaining of the parent compound at the end of the 2 h incubation period.
This solution was used to precipitate all plasma samples in the study. 200 μL was pipetted into a 96 deepwell plate over dry ice. 10 μL of 1 mM stock in DMSO was added to a 1.5 mL microfuge tube, then 990 μL of plasma. Samples were mixed by vortex, then 50 μL of each sample was added in triplicate to a 96-well plate containing internal standard solution. This was designated the 0 hour time point sample. 250 μL of the remaining plasma sample was added to each of four 96 deepwell plates—one per time point. Samples were incubated at 37° C. with gentle shaking for 0.25, 0.5, and 1 hour. After each time point, one plate of each sample was removed from the shaker and placed on wet ice for approximately 2 minutes. 50 μL plasma aliquots (in triplicate) were added to the deepwell plate containing internal standard solution. After the last time point was extracted, the 96 deepwell plate was vortexed, then centrifuged at 2-8° C. 150 μL of supernatant was collected and 25 μL of water was added. Samples were mixed and analyzed by LC-MS/MS.
The stability of seven SDC-TRAP types in mouse plasma was measured as follows. 990 μL mouse plasma aliquots from a common stock were spiked with 10 μL of 1 mM stock of one of seven SDC-TRAP samples identified in the table below. Each sample was mixed and divided into 250 μL aliquots, each representing time points 0, 15 minutes, 30 minutes or 1 hour. At the prescribed time point, 3×50 μL samples were each mixed with 200 μL of methanol containing internal standard and held on dry ice until all time point samples were extracted. The samples collectively were vortex mixed for 1.5 minutes at 1500 rpm, then centrifuged at 4400 rpm for 10 minutes at 8° C.
Setting [2] is: 1 h, read-out: IC50, 1 h-pulse/71 h-compound free, H 3211 NSLC cells, 7.5 × 10^3 cells/well, 1st of 2 columns.
[3] abbreviates: 1 h, read-out: IC50, 1 h-pulse/71 h-compound free, H 3211 NSLC cells, 7.5 × 10^3 cells/well, 2nd of 2 columns.
The mark [4] stands for this setting: 72 h, read-out: IC50, 72 h-continuous, H 3211 NSLC cells, 7.5 × 10^3 cells/well, 1st of 3 columns.
Where [5] appears, read: 72 h, read-out: IC50, 72 h-continuous, H 3211 NSLC cells, 7.5 × 10^3 cells/well, 2nd of 3 columns.
The mark [6] stands for this setting: 72 h, read-out: IC50, 72 h-continuous, H 3211 NSLC cells, 7.5 × 10^3 cells/well, 3rd of 3 columns.

Each structure is given as a SMILES string. Read-outs that look alike come from different tables or passages of the source.

As for `CNCCn1ccc2cc(-n3c(O)nnc3-c3cc(C(C)C)c(O)cc3O)ccc21` [SDC-TRAP-0004], the IC50 with H 3211 NSLC cells (read-out: IC50, 1 h-pulse/71 h-compound free, H 3211 NSLC cells, 7.5 × 10^3 cells/well, 1st of 2 columns) stood at 624 nM; in the data set with H 3211 NSLC cells (read-out: IC50, 1 h-pulse/71 h-compound free, H 3211 NSLC cells, 7.5 × 10^3 cells/well, 2nd of 2 columns) it was 1750 nM; in the data set on H 3211 NSLC cells (read-out: IC50, 72 h-continuous, H 3211 NSLC cells, 7.5 × 10^3 cells/well, 1st of 3 columns) it was 22 nM; in the data set with H 3211 NSLC cells (read-out: IC50, 72 h-continuous, H 3211 NSLC cells, 7.5 × 10^3 cells/well, 2nd of 3 columns), 60 nM; with H 3211 NSLC cells (read-out: IC50, 72 h-continuous, H 3211 NSLC cells, 7.5 × 10^3 cells/well, 3rd of 3 columns) it was 40 nM.

In the case of `CCc1c2c(nc3ccc(OCC(=O)NCCn4ccc5cc(-n6c(O)nnc6-c6cc(C(C)C)c(O)cc6O)ccc54)cc13)-c1cc3c(c(=O)n1C2)COC(=O)C3(O)CC` (stereo not shown) [SDC-TRAP-0023, 2-((4,11-diethyl-4-hydroxy-3,14-dioxo-3,4,12,14-tetrahydro-1H-pyrano[3′,4′: 6,7]indolizino[1,2-b]quinolin-9-yl)oxy)-N-(2-(5-(3-(2,4-dihydroxy-5-isopropylphenyl)-5-hydroxy-4H-1,2,4-triazol-4-yl)-1H-indol-1-yl)ethyl)acetamide], the IC50 in the data set with H 3211 NSLC cells (setting [2]) is > 3000 nM; in the data set with H 3211 NSLC cells (setting [3]), > 3000 nM; with H 3211 NSLC cells (setting [4]) it was 59 nM; in the data set with H 3211 NSLC cells (setting [5]), 239 nM; in the data set on H 3211 NSLC cells (setting [6]) it was 113 nM.

For the compound `CC(C)c1cc(-c2nnc(O)n2-c2ccc3c(ccn3CCN(C)C(=O)NCC(=O)Nc3cccc4c3CN(C3CCC(=O)NC3=O)C4=O)c2)c(O)cc1O` (stereo not shown) [SDC-TRAP-0021, 2-(3-(2-(5-(3-(2,4-dihydroxy-5-isopropylphenyl)-5-hydroxy-4H-1,2,4-triazol-4-yl)-1H-indol-1-yl)ethyl)-3-methylureido)-N-(2-(2,6-dioxopiperidin-3-yl)-1-oxoisoindolin-4-yl)acetamide], the IC50 with H 3211 NSLC cells (setting [2]) is > 3000 nM; with H 3211 NSLC cells (setting [3]), > 3000 nM; in the data set on H 3211 NSLC cells (setting [4]), 431 nM; with H 3211 NSLC cells (setting [5]) it was 817 nM; in the data set on H 3211 NSLC cells (setting [6]), 902 nM.

As to `CC(C)c1cc(-c2nnc(O)n2-c2ccc3c(ccn3CCOCCNC(=O)CCCC(=O)Nc3cccc4c3CN(C3CCC(=O)NC3=O)C4=O)c2)c(O)cc1O` (stereo not shown) [SDC-TRAP-0015, N1-(2-(2-(5-(3-(2,4-dihydroxy-5-isopropylphenyl)-5-hydroxy-4H-1,2,4-triazol-4-yl)-1H-indol-1-yl)ethoxy)ethyl)-N5-(2-(2,6-dioxopiperidin-3-yl)-1-oxoisoindolin-4-yl)glutaramide], the IC50 is > 3000 nM with H 3211 NSLC cells (setting [2]), > 3000 nM in the data set on H 3211 NSLC cells (setting [3]) and 2230 nM in the data set with H 3211 NSLC cells (setting [5]).

For `CC(C)c1cc(-c2nnc(O)n2-c2ccc3c(ccn3CCOCCNC(=O)c3ccc(CCc4c[nH]c5nc(N)[nH]c(=O)c45)cc3)c2)c(O)cc1O` [SDC-TRAP-0020, 4-(2-(2-amino-4-oxo-4,7-dihydro-3H-pyrrolo[2,3-d]pyrimidin-5-yl)ethyl)-N-(2-(2-(5-(3-(2,4-dihydroxy-5-isopropylphenyl)-5-hydroxy-4H-1,2,4-triazol-4-yl)-1H-indol-1-yl)ethoxy)ethyl)benzamide], the IC50 in the data set with H 3211 NSLC cells (setting [2]) is > 3000 nM; in the data set with H 3211 NSLC cells (setting [3]), > 3000 nM; in the data set with H 3211 NSLC cells (setting [4]) it was 587 nM; with H 3211 NSLC cells (setting [5]), 2620 nM; with H 3211 NSLC cells (setting [6]), 2010 nM.

`CCc1c2c(nc3ccc(O)cc13)-c1cc3c(c(=O)n1C2)COC(=O)C3(CC)OC(=O)CCCNC(=O)c1cc2cc(-n3c(O)nnc3-c3cc(C(C)C)c(O)cc3O)ccc2n1C` (stereo not shown) [SDC-TRAP-0024, 4,11-diethyl-9-hydroxy-3,14-dioxo-3,4,12,14-tetrahydro-1H-pyrano[3′,4′:6,7]indolizino[1,2-b]quinolin-4-yl 4-(5-(3-(2,4-dihydroxy-5-isopropylphenyl)-5-hydroxy-4H-1,2,4-triazol-4-yl)-1-methyl-1H-indole-2-carboxamido)butanoate]: the IC50 with H 3211 NSLC cells (setting [4]) is 76 nM.

`CC(C)c1cc(-c2nnc(O)n2-c2ccc3c(ccn3CCN(C)C(=O)CCCC(=O)Nc3cccc4c3CN(C3CCC(=O)NC3=O)C4=O)c2)c(O)cc1O` (stereo not shown) [SDC-TRAP-0018, N1-(2-(5-(3-(2,4-dihydroxy-5-isopropylphenyl)-5-hydroxy-4H-1,2,4-triazol-4-yl)-1H-indol-1-yl)ethyl)-N5-(2-(2,6-dioxopiperidin-3-yl)-1-oxoisoindolin-4-yl)-N1-methylglutaramide]: the IC50 with H 3211 NSLC cells (setting [2]) was > 3000 nM; in the data set on H 3211 NSLC cells (setting [3]), > 3000 nM; with H 3211 NSLC cells (setting [4]) it was 287 nM; in the data set with H 3211 NSLC cells (setting [5]) it was 839 nM; with H 3211 NSLC cells (setting [6]) it was 735 nM.

In the case of `CC(C)c1cc(-c2nnc(O)n2-c2ccc3c(ccn3CCN(C)C(=O)c3ccc(CCc4c[nH]c5nc(N)[nH]c(=O)c45)cc3)c2)c(O)cc1O` [SDC-TRAP-0019, 4-(2-(2-amino-4-oxo-4,7-dihydro-3H-pyrrolo[2,3-d]pyrimidin-5-yl)ethyl)-N-(2-(5-(3-(2,4-dihydroxy-5-isopropylphenyl)-5-hydroxy-4H-1,2,4-triazol-4-yl)-1H-indol-1-yl)ethyl)-N-methylbenzamide], the IC50 with H 3211 NSLC cells (setting [2]) was > 3000 nM; in the data set on H 3211 NSLC cells (setting [3]), > 3000 nM; in the data set with H 3211 NSLC cells (setting [4]), 209 nM; with H 3211 NSLC cells (setting [5]), 713 nM; in the data set on H 3211 NSLC cells (setting [6]), 258 nM.

For `CCc1c2c(nc3ccc(OCC(=O)N(C)CCn4ccc5cc(-n6c(O)nnc6-c6cc(C(C)C)c(O)cc6O)ccc54)cc13)-c1cc3c(c(=O)n1C2)COC(=O)C3(O)CC` (stereo not shown) [SDC-TRAP-0027, 2-((4,11-diethyl-4-hydroxy-3,14-dioxo-3,4,12,14-tetrahydro-1H-pyrano[3′,4′:6,7]indolizino[1,2-b]quinolin-9-yl)oxy)-N-(2-(5-(3-(2,4-dihydroxy-5-isopropylphenyl)-5-hydroxy-4H-1,2,4-triazol-4-yl)-1H-indol-1-yl)ethyl)-N-methylacetamide], the IC50 with H 3211 NSLC cells (setting [2]) is > 3000 nM; with H 3211 NSLC cells (setting [3]), > 3000 nM; in the data set with H 3211 NSLC cells (setting [5]) it was 1740 nM; in the data set on H 3211 NSLC cells (setting [6]) it was 1340 nM.

On to `CCc1c2c(nc3ccc(OCC(=O)N(C)CCOCCn4ccc5cc(-n6c(O)nnc6-c6cc(C(C)C)c(O)cc6O)ccc54)cc13)-c1cc3c(c(=O)n1C2)COC(=O)C3(O)CC` (stereo not shown) [SDC-TRAP-0028, 2-((4,11-diethyl-4-hydroxy-3,14-dioxo-3,4,12,14-tetrahydro-1H-pyrano[3′,4′:6,7]indolizino[1,2-b]quinolin-9-yl)oxy)-N-(2-(2-(5-(3-(2,4-dihydroxy-5-isopropylphenyl)-5-hydroxy-4H-1,2,4-triazol-4-yl)-1H-indol-1-yl)ethoxy)ethyl)-N-methylacetamide], for which the IC50 in the data set on H 3211 NSLC cells (setting [2]) is > 3000 nM; in the data set with H 3211 NSLC cells (setting [3]), > 3000 nM; in the data set with H 3211 NSLC cells (setting [4]), 468 nM; in the data set with H 3211 NSLC cells (setting [5]), 1760 nM; in the data set with H 3211 NSLC cells (setting [6]), 499 nM. For the same compound, in data set [1] (mouse, plasma, 10 μM), the “% Remaining” value was 41%.

Regarding `CCNC(=O)c1nnc(-c2cc(C(C)C)c(O)cc2O)n1-c1ccc2c(ccn2CCC2CCN(C(=O)O[C@]3(CC)C(=O)OCc4c3cc3n(c4=O)Cc4c-3nc3ccc(O)cc3c4CC)CC2)c1` [SDC-TRAP-0208, (S)-4,11-diethyl-9-hydroxy-3,14-dioxo-3,4,12,14-tetrahydro-1H-pyrano[3′,4′:6,7]indolizino[1,2-b]quinolin-4-yl 4-(2-(5-(3-(2,4-dihydroxy-5-isopropylphenyl)-5-(ethylcarbamoyl)-4H-1,2,4-triazol-4-yl)-1H-indol-1-yl)ethyl)piperidine-1-carboxylate], in data set [1] (mouse plasma, 37° C.), the “% Remaining” value was 86.1%.

As to `CCc1c2c(nc3ccc(O)cc13)-c1cc3c(c(=O)n1C2)COC(=O)C3(CC)OC(=O)N(C)CCOCCn1ccc2cc(-n3c(O)nnc3-c3cc(C(C)C)c(O)cc3O)ccc21` (stereo not shown) [SDC-TRAP-0037, 4,11-diethyl-9-hydroxy-3,14-dioxo-3,4,12,14-tetrahydro-1H-pyrano[3′,4′:6,7]indolizino[1,2-b]quinolin-4-yl (2-(2-(5-(3-(2,4-dihydroxy-5-isopropylphenyl)-5-hydroxy-4H-1,2,4-triazol-4-yl)-1H-indol-1-yl)ethoxy)ethyl)(methyl)carbamate], in data set [1] (mouse plasma, 37° C.), the “% Remaining” value worked out at 95%.

For `CCc1c2c(nc3ccc(O)cc13)-c1cc3c(c(=O)n1C2)COC(=O)C3(CC)OC(=O)N(C)CCCCN1CCN(Cc2ccc(-n3c(O)nnc3-c3cc(C(C)C)c(O)cc3O)cc2)CC1` (stereo not shown) [SDC-TRAP-0055, 4,11-diethyl-9-hydroxy-3,14-dioxo-3,4,12,14-tetrahydro-1H-pyrano[3′,4′:6,7]indolizino[1,2-b]quinolin-4-yl (4-(4-(4-(3-(2,4-dihydroxy-5-isopropylphenyl)-5-hydroxy-4H-1,2,4-triazol-4-yl)benzyl)piperazin-1-yl)butyl)(methyl)carbamate], the “% Remaining” value in data set [1] (mouse, plasma, 10 μM) is listed as 103%.

Take `CCNC(=O)c1nnc(-c2cc(C(C)C)c(O)cc2O)n1-c1ccc(CN2CCC(C(=O)N3CCN(c4cc(C)c(OC(=O)Nc5cccc6c5CN(C5CCC(=O)NC5=O)C6=O)c(C)c4)CC3)CC2)cc1` (stereo not shown) [SDC-TRAP-0195, 4-(4-(1-(4-(3-(2,4-dihydroxy-5-isopropylphenyl)-5-(ethylcarbamoyl)-4H-1,2,4-triazol-4-yl)benzyl)piperidine-4-carbonyl)piperazin-1-yl)-2,6-dimethylphenyl (2-(2,6-dioxopiperidin-3-yl)-1-oxoisoindolin-4-yl)carbamate]: the “% Remaining” value in data set [1] (mouse, plasma, 10 μM) amounted to 98.4%.

For `CCNC(=O)c1nnc(-c2cc(C(C)C)c(O)cc2O)n1-c1ccc(Oc2ccc(N(C)C(=O)Oc3ccc4nc5c(c(CC)c4c3)Cn3c-5cc4c(c3=O)COC(=O)[C@]4(O)CC)cc2)cc1` [SDC-TRAP-0145, (S)-4,11-diethyl-4-hydroxy-3,14-dioxo-3,4,12,14-tetrahydro-1H-pyrano[3′,4′:6,7]indolizino[1,2-b]quinolin-9-yl (4-(4-(3-(2,4-dihydroxy-5-isopropylphenyl)-5-(ethylcarbamoyl)-4H-1,2,4-triazol-4-yl)phenoxy)phenyl)(methyl)carbamate], the “% Remaining” value in data set [1] (mouse plasma, 37° C.) is listed as 14.1%.
